What was measured:
Cdc7/Dbf4 = Cdc7/Dbf4 (Homo sapiens, UniProt O00311); assay: Cdc7 biochemical assay Method 2: Cdc7/Dbf4 Enzyme TR-FRET Assay measuring pS40MCM2; details: pS40 MCM2 peptide, 1 μM ATP, 25° C., 120 minutes, read-out: Biochemical Method 2 (pIC50) (converted)
Procedure: This protocol describes a method for assaying a compounds' ability to inhibit Cdc7 activity by measuring pS40MCM2 levels in a Cdc7/Dbf4 Enzyme TR-FRET Assay.
2.5 nM Cdc7/Dbf4 was incubated with 100 nM of biotin-labelled peptide 35-TDALTS(pS)PGRDLP in the presence of 1 μM ATP at 25° C. for 120 minutes. The phosphorylation of the peptide was detected using TR-FRET. Anti-Mcm2 (pS40) antibody, Terbium anti-rabbit secondary antibody and Streptavidin-Alexa Fluor488 form the detection system.

Cdc7 = Cdc7 (Homo sapiens, UniProt O00311); assay: Cdc7 cell pharmacodynamics assay Method 2: pS40MCM2 levels in HCT116 cells; type: cell-based; set-up: endogenous in cells; details: 18 hours treatment, read-out: Biomarker Method 2 (pEC50) (converted)
Chain of Cdc7 (O00311 whole entry): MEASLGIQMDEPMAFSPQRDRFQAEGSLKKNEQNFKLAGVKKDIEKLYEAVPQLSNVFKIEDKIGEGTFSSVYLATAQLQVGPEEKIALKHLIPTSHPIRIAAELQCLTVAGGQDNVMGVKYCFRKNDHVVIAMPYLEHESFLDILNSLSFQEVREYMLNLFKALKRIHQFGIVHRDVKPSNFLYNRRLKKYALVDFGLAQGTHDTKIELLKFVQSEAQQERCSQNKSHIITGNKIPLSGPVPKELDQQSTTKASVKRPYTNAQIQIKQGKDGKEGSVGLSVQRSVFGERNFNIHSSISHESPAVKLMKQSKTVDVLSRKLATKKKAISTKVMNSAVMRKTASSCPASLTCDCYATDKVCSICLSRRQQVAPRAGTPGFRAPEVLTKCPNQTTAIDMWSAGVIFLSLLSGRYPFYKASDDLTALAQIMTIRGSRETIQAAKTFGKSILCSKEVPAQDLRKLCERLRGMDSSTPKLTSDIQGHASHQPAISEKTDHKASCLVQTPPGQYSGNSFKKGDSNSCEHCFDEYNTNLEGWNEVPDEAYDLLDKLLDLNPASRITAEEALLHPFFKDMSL
Chain of Cdc7 (Q9UBU7 whole entry partner): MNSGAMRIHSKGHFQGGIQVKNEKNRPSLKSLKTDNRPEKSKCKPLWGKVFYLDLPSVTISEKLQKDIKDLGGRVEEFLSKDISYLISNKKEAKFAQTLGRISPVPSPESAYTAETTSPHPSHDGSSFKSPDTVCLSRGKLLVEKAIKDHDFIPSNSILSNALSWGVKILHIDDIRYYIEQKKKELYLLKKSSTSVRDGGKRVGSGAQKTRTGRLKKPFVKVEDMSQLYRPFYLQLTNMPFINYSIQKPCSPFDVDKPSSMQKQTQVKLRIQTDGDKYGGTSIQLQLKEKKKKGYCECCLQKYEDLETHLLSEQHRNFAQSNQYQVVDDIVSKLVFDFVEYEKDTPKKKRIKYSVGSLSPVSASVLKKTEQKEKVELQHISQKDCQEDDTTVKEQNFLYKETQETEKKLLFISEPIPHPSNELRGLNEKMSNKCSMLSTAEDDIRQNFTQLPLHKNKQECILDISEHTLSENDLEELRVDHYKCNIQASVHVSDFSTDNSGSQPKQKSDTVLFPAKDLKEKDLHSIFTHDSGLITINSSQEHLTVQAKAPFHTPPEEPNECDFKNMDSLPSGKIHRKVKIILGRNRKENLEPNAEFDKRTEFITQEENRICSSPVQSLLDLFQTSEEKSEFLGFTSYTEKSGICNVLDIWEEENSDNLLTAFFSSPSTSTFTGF
Source text: This protocol describes a method to investigate the inhibition of Cdc7 activity by measuring pS40MCM2 levels in cells, after treatment with compounds.
• HCT116 cells (ATCC, #CCL-247) • McCoys 5A with L-glutamine (Cellgro, #10-050-CV) • 10% FCS (Cellgro, #35-010-CV) • D-PBS without CaCl2 and MgCl2 (Cellgro, #21-031-CV) • Trypsin/EDTA (Cellgro, #25-052-CL) • BSA (Calbiochem, 126593) • Cell Extraction Buffer (Invitrogen FNN0011) • Protease inhibitor cocktail (Sigma P-2714) • PMSF 0.3M stock in DMSO (Sigma P7626) • Antibody—rabbit pMCM2 Ser40 (Abeam, AB133243) • Antibody—goat MCM2 (Bethyl #A300-122A) • Antibody—goat Anti Rabbit IgG HRP (Thermo, 31462) • SuperSignal ELISA Pico Chemiluminescent Substrate (Perbio Science UK Ltd 37069) • 10×PBS (Growcells, MRGF-6236) • Triton X100 (Sigma, P-T8787) • DMSO (Fisher, D128-1) • 2-Propanol (J. T. Baker, 9095-03) Method • Seed 1×10^6 HCT116 cells into each of two 175 cm^2 flask containing 30 mL Cell Growth Media and incubate at 37° C., 5% CO2 for 3 days. • Harvest the cells from one T175 cm^2 flask and count. • Dilute with Cell Growth Media to a cell density of 2×10^5. Dispense 100 μL to each well (20,000 HCT116 cells/well) of TC treated 96-well plate(s). • Allow cells to settle overnight in incubator set at 37° C. and 5% CO2. • Cell treatment: Transfer 0.25 μL/well from the compound plate to the wells of the cell plate(s). This is a 1:400 dilution of compound in the assay. • Once all cells are treated place the cells back to the incubator and incubate for 18 hours. • Dilute the capture antibody (total MCM2 #A300-122A) 1 in 250 in the required volume of PBS (5 mL per assay plate, plus 5 mL for dead volume) and add 50 μL to each well of a Hybond plate except wells A12 & B12. Seal the plate and incubate at room temperature fora minimum of 2 hours. • Defrost aliquot of Invitrogen Cell Extraction Buffer (FNN0011) on ice and supplement with appropriate volume of both Sigma protease inhibitor cocktail (P-2714) and PMSF (final cone 1 mM from a 1 M stock in DMSO). • After the 6 hour or 18 hour cell treatment time, tap out the media from the assay plates and place them in the −70° C. freezer for at least 5 minutes. • Flick out the remaining liquid in the previously prepared capture Ab plate(s) and add 200 μL 2% BSA per well. Incubate for 1 hour at room temperature. • Remove plates from freezer and add 20 μL of ice cold complete lysis buffer. Incubate cells for 30 minutes at 4° C. • Add 30 μL per well 2% BSA • At the end of the 1 hour incubation, wash the Capture/ELISA plate(s) with Wash Buffer on the BioTek plate washer. • Transfer 40 μL per well of the lysis plate(s) to the same wells in the Capture/ELISA plate. Incubate cells overnight at 4° C. • At the end of the overnight incubation, wash the ELISA plate(s) with Wash Buffer on BioTek plate washer. • Prepare Detection Antibody Buffer and dispense 50 μL to all wells of ELISA plate(s) except wells G1 & H1. Cover plate and incubate at room temperature for 2 hours with gentle shaking. • At the end of the 2 hour incubation, wash the ELISA plate(s) with Wash Buffer on the BioTek plate washer. • Prepare the Conjugated Antibody Buffer and dispense 50 μL to all wells of ELISA plate(s). • Cover the plate and incubate at room temperature for 1 hour with gentle shaking. • At the end of the 1 hour incubation, wash the ELISA plate(s) with Wash Buffer on the BioTek plate washer. • Prepare Substrate Buffer and dispense 50 μL to all wells of ELISA plate(s). • Incubate for a minimum of 10 minutes and read plates on the EnVision 2100 Multilabel Reader (Mirror: Luminescence (404) & Luminescence 700 (212); Measurement Height: 6.5 mm; Measurement Time: 0.2 s). Method 3

Chain of Cdc7/Dbf4 (O00311 whole entry): as the sequence (O00311 whole entry) above
Chain of Cdc7/Dbf4 (Q9UBU7 whole entry partner): as the sequence (Q9UBU7 whole entry partner) above

Row | IC50 (Cdc7/Dbf4) | EC50 (Cdc7) | SMILES
1 | 0.832 nM | 7.24 nM | C[C@@H]1COCCN1c1nc(-c2cn[nH]c2C(F)(F)F)[nH]c(=O)c1Cl [Compound 41, 5-chloro-4-[(3R)-3-methylmorpholin-4-yl]-2-[5-(trifluoromethyl)-1H-pyrazol-4-yl]-1H-pyrimidin-6-one]
2 | 2.69 nM | 25.1 nM | C[C@@H]1CNCCN1c1nc(-c2cn[nH]c2C(F)(F)F)[nH]c(=O)c1Cl [Compound 44, 5-chloro-4-[(2R)-2-methylpiperazin-1-yl]-2-[5-(trifluoromethyl)-1H-pyrazol-4-yl]-1H-pyrimidin-6-one]
3 | 1.95 nM | – | Cc1ncsc1-c1nc(C2CCOCC2)c(Cl)c(=O)[nH]1 [Compound 6, 5-chloro-2-(4-methylthiazol-5-yl)-4-tetrahydropyran-4-yl-1H-pyrimidin-6-one]
4 | 1.82 nM | 38 nM | C[C@@H]1CNCCN1c1nc(-c2cn[nH]c2Cl)[nH]c(=O)c1Cl [Compound 43, 5-chloro-2-(5-chloro-1H-pyrazol-4-yl)-4-[(2R)-2-methylpiperazin-1-yl]-1H-pyrimidin-6-one]
5 | 1.45 nM | 372 nM | O=c1[nH]c(-c2cn[nH]c2C(F)(F)F)nc(C2CCOCC2)c1Cl [Compound 17, 5-chloro-4-tetrahydropyran-4-yl-2-[5-(trifluoromethyl)-1H-pyrazol-4-yl]-1H-pyrimidin-6-one]

Reference: patent publication US11766434B2, “Pyrimidinone derivatives as CDC7 inhibitors” (Cancer Research Technology Limited, priority 2016, dated 2023)
